Read-outs that look alike come from different tables or passages of the source.
Experiments:
[1] = Comparison of solubilities (saturated concentration by HPLC); assay type: physicochemical; details: for solubility thermodynamic at 16 h: thermodynamic from solid
Protocol: The thus-obtained ursolic acid phosphate was compared to ursolic acid (control) on their solubilities. The mixture was stirred for 16 hours and was passed through a 0.45-μm filter. After that, concentration measurement was performed by HPLC.

[2] = system: Hartley white guinea pigs; assay: Guinea pig maximization test (skin sensitivity); assay type: in vivo; details: challenge 5%, 0.5%, Draize criteria
Protocol: A guinea pig maximization test was performed using ten Hartley white guinea pigs to examine the presence or absence of the skin sensitivity of ursolic acid phosphate to the guinea pigs. An emulsified product containing distilled water and Freund's complete adjuvant (FCA) in equal volumes, a test substance (dissolved in olive oil, 5%), and a mixture including a test substance and FCA in equal volumes were separately injected intracutaneously to five guinea pigs in two sites with 0.1 mL, respectively. The next day, the hair of the intracutaneous injection sites was shaved, and a mixture of 10% sodium lauryl sulfate/petrolatum was applied thereto. The day after that, 0.1 ml of 5% ursolic acid phosphate (dissolved in olive oil) was applied with a patch for 48 hours to the shaved sites to complete induction of sensitization. After completion of induction of sensitization, a 10-day rest period was provided. After completion of the period, the hair in back untreated sites was shaved. Then, each of 0.1 ml of 5%, 0.5%, and 0% ursolic acid phosphate (dissolved in olive oil) was applied with a patch for 24 hours to respective three sites to […]. Thirty minutes and 24 hours after patch removal, skin reactions were observed. […]

Row | Saturated concentration ([1]; Solvent 8% EtOH/0.1 M phosphate Buffer (pH7.0), stirred 16 hours, 0.45-μm filter, HPLC) | Saturated concentration ([1]; Solvent 8% EtOH/0.1 M phosphate Buffer (pH9), stirred 16 hours, 0.45-μm filter, HPLC) | Saturated concentration ([1]; Solvent 8% EtOH/DW, stirred 16 hours, 0.45-μm filter, HPLC) | Saturated concentration ([1]; Solvent EtOH, stirred 16 hours, 0.45-μm filter, HPLC) | solubility thermodynamic at 16 h ([1]; pH 9, aqueous buffer, Solvent 0.1 M phosphate Buffer (pH9), stirred 16 hours, 0.45-μm filter, HPLC, read-out: Saturated concentration) | solubility thermodynamic at 16 h ([1]; water, Solvent DW, stirred 16 hours, 0.45-μm filter, HPLC, read-out: Saturated concentration) | solubility compared to that of ursolic acid [1] | Saturated concentration ([1]; 16 h, pH 7) | Saturated concentration ([1]; 16 h, pH 9) | solubility thermodynamic at 16 h ([1]; pH 9, aqueous buffer) | solubility thermodynamic at 16 h ([1]; water) | skin reactions, sample-administered group versus control group ([2]; 0% in olive oil, patch 24 hours) | SMILES | sensitization to skin ([2]; induction with 5% in olive oil, 0% patch 24 hours, observed 30 minutes and 24 hours after patch removal)
1 | <1 µg/mL | <1 µg/mL | <1 µg/mL | <1 µg/mL | < 0.001 mg/mL | < 0.001 mg/mL |  |  |  |  |  |  | C[C@H]1[C@H](C)CC[C@]2(C(=O)O)CC[C@]3(C)C(=CC[C@@H]4[C@@]5(C)CC[C@H](O)C(C)(C)[C@@H]5CC[C@]43C)[C@H]12 [ursolic acid, reference compound] | 
2 |  |  |  |  |  |  | improved | 31.1 µg/mL | 7.5 µg/mL | 0.12 mg/mL | 0.0201 mg/mL | no differences | C[C@H]1[C@H](C)CC[C@]2(C(=O)O)CC[C@]3(C)C(=CC[C@@H]4[C@@]5(C)CCC(OP(=O)(O)O)C(C)(C)[C@@H]5CC[C@]43C)[C@H]12 (stereo partly shown) [ursolic acid phosphate, Ursolic acid phosphate] | not observed
